The test system of experiment [1] is Arthus reaction (III-type allergy). The experiment can be described thus: Inhibitory Action on Arthus Reaction (Assay Example 7). The conditions noted are these: for increase in edematized left hind paw volume / edema inhibition: one hour prior to ovalbumin; for increase in edematized left hind paw volume: 2 hours, control (0.74±0.06) ml; for edema inhibition: significant, not more than 1% error level.
Experimental: Rat anti-ovalbumin serum was prepared by the method given below. One mg of ovalbumin was dissolved in 1 ml of physiological saline and divided to two aliquots. The ovalbumin solution was intramuscularly administered to the femoral portion of male SD rats. Simultaneously, 0.5 ml of 0.05% Mycobacterium butyricum suspension as a Freund's complete adjuvant was intraperitoneally administered to the rats. Three days later, the same treatments were repeated. On the 12th day after the initial sensitization,antisera were collected.
Two hours later, the left hind paw volume was measured using a plethysmometer and the increases in paw volume were determined by comparing with those prior to the Arthus reaction induction. […] Each compound was suspended in a 0.5% aqueous CMC-Na solution and orally administered one hour prior to the ovalbumin administration. Control groups received only a 0.5% aqueous CMC-Na solution. The test of significance was conducted by Dunnett's multiple range test.

Experiment [2] relates to oxazolone-induced dermal delayed type hypersensitivity (IV-type allergy). The experiment can be described thus: Inhibitory Action on Oxazolone-Induced Dermal Delayed Type Hypersensitivity (Assay Example 8). It counts as in vivo, mice. The conditions noted are these: for edema inhibition / increase in edematized auricle thickness: 4 days, 24 hours after challenge; for increase in edematized auricle thickness: control (0.12±0.03) mm. As to the method: Sensitization was conducted by topically applying 150 μl of 1% oxazolone solution (ethanol:acetone=3:1) to mice (5 to 6 animals per group), the abdominal and pectral regions of which were shaved in advance. Four days after the sensitization, 10 μl of 0.8% oxazolone solution (in olive oil) was topically applied to the […] left auricle to raise the response. Twenty-four hours later the auricular thickness was measured using a dial-gauge (Mitsutoyo Co.). Values obtained by subtracting auricular thickness data prior to the challenge were taken as indexes of the response. […] One hour after the final administration, the challenge was conducted.

Experiment [3] deals with T1, COX-1 (Ovis aries, UniProt P05979).
T1 construct: purchased Cayman Chemical Co
T1 sequence (P05979 25-600): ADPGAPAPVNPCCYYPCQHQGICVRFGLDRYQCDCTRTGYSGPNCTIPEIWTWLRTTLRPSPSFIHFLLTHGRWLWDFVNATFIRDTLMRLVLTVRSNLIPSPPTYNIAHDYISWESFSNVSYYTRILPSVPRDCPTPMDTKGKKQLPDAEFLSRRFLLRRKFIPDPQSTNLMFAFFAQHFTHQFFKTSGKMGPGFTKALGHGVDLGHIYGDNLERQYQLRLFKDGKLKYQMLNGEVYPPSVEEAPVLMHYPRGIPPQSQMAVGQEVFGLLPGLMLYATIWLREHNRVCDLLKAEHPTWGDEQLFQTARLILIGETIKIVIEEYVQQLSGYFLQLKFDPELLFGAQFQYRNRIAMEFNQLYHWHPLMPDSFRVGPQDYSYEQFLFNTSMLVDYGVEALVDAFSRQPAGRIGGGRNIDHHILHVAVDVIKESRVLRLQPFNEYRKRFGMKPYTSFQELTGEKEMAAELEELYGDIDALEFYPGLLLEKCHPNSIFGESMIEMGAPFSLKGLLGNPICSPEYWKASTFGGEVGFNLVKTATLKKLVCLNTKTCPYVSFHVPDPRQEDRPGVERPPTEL
The experiment can be described thus: Inhibitory Activity on COX-1 (Assay Example 1). It counts as biochemical. The conditions noted are these: Table 1; read-out: COX Inhibiting Activity IC50, COX-1.

Experiment [4] concerns the target T2, COX-2 (Ovis aries, UniProt P79208).
T2 construct: purchased Cayman Chemical Co
T2 sequence (P79208 17-603): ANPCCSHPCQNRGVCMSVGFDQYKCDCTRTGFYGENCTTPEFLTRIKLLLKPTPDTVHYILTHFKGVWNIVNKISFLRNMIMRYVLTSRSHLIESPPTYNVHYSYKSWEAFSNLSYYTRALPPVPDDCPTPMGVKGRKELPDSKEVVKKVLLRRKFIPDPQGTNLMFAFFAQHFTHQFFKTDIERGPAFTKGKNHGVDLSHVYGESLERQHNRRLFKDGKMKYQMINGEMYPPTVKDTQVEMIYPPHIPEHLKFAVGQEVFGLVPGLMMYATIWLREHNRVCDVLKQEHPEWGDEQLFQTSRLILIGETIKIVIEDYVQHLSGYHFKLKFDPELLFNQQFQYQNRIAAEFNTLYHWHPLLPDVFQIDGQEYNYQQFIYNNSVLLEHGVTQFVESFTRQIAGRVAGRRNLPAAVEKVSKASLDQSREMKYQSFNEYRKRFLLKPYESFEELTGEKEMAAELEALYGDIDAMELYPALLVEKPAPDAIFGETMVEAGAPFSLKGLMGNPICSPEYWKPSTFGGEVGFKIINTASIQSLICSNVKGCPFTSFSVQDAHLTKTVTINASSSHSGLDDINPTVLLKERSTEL
The experiment in a line: Inhibitory Activity on COX-2 (Assay Example 1). In kind it is biochemical. The conditions noted are these: Table 1; for IC50: read-out: COX Inhibiting Activity IC50, COX-2.

Experiment [5] concerns acetic acid writhing in male ddY mice. The experiment in a line: Analgesic Action in Acetic Acid Writhing (Assay Example 3). It counts as in vivo. Here is the method: A 0.7% acetic acid solution was intraperitoneally administered to male ddY mice at a dose of 10 ml/kg body weight. The frequency of writhing manifested was counted as an index of pains for a period of 10 minutes starting from the 10th minute after the administration. Ten or thirty minutes prior to the acetic acid administration, each test compound was orally given.
(In writhing tests, fewer writhes than in controls are read as antinociception.)

Experiment [6] concerns rat adjuvant-induced arthritis. The experiment can be described thus: Inhibitory Action on Adjuvant Arthritis (1) (Assay Example 2). The conditions noted are these: oral 5 mg/kg; for % Inhibition against Reduction of Gain in Body Weight / Edema Inhibition (%) Left Hind Paw (Non-inflamed Paw) / Edema Inhibition (%) Right Hind Paw (Inflamed Paw) / Inflammation Score Inhibition (%): days 0, 3, 7, 10, 14, 17, 20; for % Inhibition against Reduction of Gain in Body Weight / Edema Inhibition (%) Left Hind Paw (Non-inflamed Paw) / Edema Inhibition (%) Right Hind Paw (Inflamed Paw): measured day 21; for Inflammation Score Inhibition (%): scored day 21; for % Inhibition against Change in Relative Weight, Spleen / % Inhibition against Change in Relative Weight, Thymus: 7 times, relative weight per 100 g body weight, day 21. It counts as in vivo, male Fisher rats.
Experimental: Dry Mycobacterium butyricum killed organisms (Difco) were suspended in liquid paraffin to make the concentration 1% and the resulting suspension used as an adjuvant. The adjuvant (50 μl) was subplantarly injected to the right hind paw of male Fisher rats (5 to 6 animals per group) to raise arthritis. Each test compound was suspended in a 0.5% aqueous sodium carboxymethylcellulose (CMC-Na) solution and orally administered to the rats at a dose of 5 mg/kg on days 0, 3, 7, 10, 14, 17 and 20 (7 times in total) after the arthritis induction. On the 21st disease day the rats were measured for their body weight and the edema of their right and left hind paws. Simultaneously, systemic inflammatory states were scored. In addition, each of their spleen and thymus was taken out by excision to measure their wet weight and their relative weight per 100 g body weight was calculated.

For experiment [7], the system named is adjuvant arthritis in rats. The experiment in a line: Inhibitory Action on Adjuvant Arthritis (2) (Assay Example 6). In kind it is in vivo, male F344/Du (Fisher) rats. The conditions noted are these: oral 1 mg/5 ml/kg daily, 17 days. Here is the method:
A 1% dry Mycobacterium tuberculosis H37 RA killed organism suspension in liquid paraffin was employed as an adjuvant. The adjuvant suspension (50 μl) was subplantarly administered to the right hind paw of male F344/Du (Fisher) rats (5 to 6 animals per group) to raise arthritis. […] The next day after the final administration, the rats were measured for their body weight and the edema of their right and left hind paws. Simultaneously, systemic inflammatory states were scored. In addition, each of their spleen and thymus was taken out by excision to measure their wet weight and their relative weight per 100 g body weight was determined.

From patent US6136831A, “Pyrazole derivatives and COX inhibitors containing them” (Grelan Pharmaceutical Co., Ltd., priority 1997, dated 2000) come the findings set out here.

Each structure is given as a SMILES string.

On to `C[C@]12C=CC(=O)C=C1CC[C@@H]1[C@@H]2[C@@H](O)C[C@@]2(C)[C@H]1CC[C@]2(O)C(=O)CO` [prednisolone, reference compound], for which, in experiment [1] (10 mg/kg oral), the “increase in edematized left hind paw volume” value was determined as 0.51 ± 0.02 mL and the edema inhibition is given as 31%. In experiment [2] (10 mg/kg oral daily), the edema inhibition turned out to be 70% and the “increase in edematized auricle thickness” value is recorded as 0.04±0.01 mm.
Broadly, the IC50 is the concentration that inhibits the measured activity by half. As to `COc1ccc2nc(-c3cc(C(F)(F)F)nn3-c3ccc(S(N)(=O)=O)cc3)sc2c1` [Example 11, 4-[5-(6-Methoxybenzothiazol-2-yl)-3-trifluoromethyl-1H-pyrazol-1-yl]benzenesulfonamide], the half-maximal inhibitory concentration (IC50) in experiment [3] is over 100 µM. For the same compound, in experiment [4], the “COX-1/COX-2 (ratio of IC50 values)” value was over 208 and the IC50 was 0.48 µM.
For `CS(=O)(=O)c1ccc(-n2nc(C(F)(F)F)cc2-c2nc3ccccc3s2)cc1` [Example 8, 2-[1-(4-Methylsulfonylphenyl)-3-trifluoromethyl-1H-pyrazol-5-yl]benzothiazole], in experiment [3], the IC50 was over 100 µM. In experiment [4], the “COX-1/COX-2 (ratio of IC50 values)” value was over 294 and the 50% inhibitory concentration (IC50) is 0.34 µM.
For the compound `CS(=O)(=O)c1ccc(-n2nc(C(F)(F)F)cc2-c2nc3ccc(Cl)cc3s2)cc1` [Example 10, 6-Chloro-2-[1-(4-methylsulfonylphenyl)-3-trifluoromethyl-1H-pyrazol-5-yl]benzothiazole], the concentration for half-maximal inhibition (IC50) in experiment [3] was over 100 µM; in experiment [4], 0.54 µM. In addition, the “COX-1/COX-2 (ratio of IC50 values)” value in experiment [4] was over 185.
On to `COc1ccc2c(c1)c(CC(=O)O)c(C)n2C(=O)c1ccc(Cl)cc1` [Indomethacin, reference compound], for which the “% Inhibition of Writhing Response” value in experiment [5] (po, 3 mg/kg) amounted to 28%. Besides, in experiment [6], the “% Inhibition against Reduction of Gain in Body Weight” value (from here on “% Inhibition against Reduction”) is reported as 19.8%, the “Edema Inhibition (%) Left Hind Paw (Non-inflamed Paw)” value was found to be 75%, the “Edema Inhibition (%) Right Hind Paw (Inflamed Paw)” value (“Edema Inhibition (%) Right Hind Paw” for short) is 43% and the “Inflammation Score Inhibition (%)” value is reported as 51%.
Turning to `CS(=O)(=O)c1ccc(-n2nc(C(F)(F)F)cc2-c2ccc(F)cc2)cc1` [SC-58125, 5-(4-fluorophenyl)-1-(4-methylsulfonylphenyl)-3-trifluoromethyl-1H-pyrazole, reference compound], in experiment [5] (30 mg/kg oral, Administration Point 1: 10 minutes prior to acetic acid), the “% Inhibition of Writhing Response” value was determined as 22%. Further, in experiment [6], the “% Inhibition against Reduction” value is reported as 96.9%, the “Edema Inhibition (%) Left Hind Paw (Non-inflamed Paw)” value came to 95%, the “Edema Inhibition (%) Right Hind Paw” value came out at 76% and the “Inflammation Score Inhibition (%)” value stood at 96%.
On to `Cc1ccc(-c2cc(C(F)(F)F)nn2-c2ccc(S(N)(=O)=O)cc2)cc1` [YM-177, 4-[5-(4-methylphenyl)-3-trifluoromethyl-1H-pyrazol-1-yl]benzenesulfonamide, reference compound], for which, in experiment [5] (po, 30 mg/kg), the “% Inhibition of Writhing Response” value is recorded as 17%. In addition, in experiment [7] (measured next day), the “% Inhibition against Reduction” value stood at 21%, the “Edema Inhibition (%) Left Hind Paw (Non-inflamed Paw)” value is recorded as 60% and the “Edema Inhibition (%) Right Hind Paw” value amounted to 41%. Also, in experiment [7] (scored next day), the “Inflammation Score Inhibition (%)” value was found to be 49%. Moreover, in experiment [6], the “% Inhibition against Reduction” value amounted to 25.5%, the “Edema Inhibition (%) Left Hind Paw (Non-inflamed Paw)” value was 65%, the “Edema Inhibition (%) Right Hind Paw” value worked out at 37% and the “Inflammation Score Inhibition (%)” value was 44%.
As to `CS(=O)(=O)c1ccc(-n2nc(C(F)(F)F)cc2-c2nc3c(F)cccc3s2)cc1` [Example 6, 4-Fluoro-2-[1-(4-methylsulfonylphenyl)-3-trifluoromethyl-1H-pyrazol-5-yl]benzothiazole], the half-maximal inhibitory concentration (IC50) in experiment [3] was over 100 µM. Also, in experiment [1] (50 mg/kg oral), the “increase in edematized left hind paw volume” value worked out at 0.54 ± 0.04 mL and the edema inhibition is 27%. In addition, the “action on Arthus reaction, in words” value in experiment [1] (index test for immunoregulating activity, III-type allergy) is “controlling actions”. In experiment [4], the “COX-1/COX-2 (ratio of IC50 values)” value is listed as over 23.3 and the IC50 was found to be 4.3 µM. For the same compound, in experiment [2] (30 mg/kg oral daily), the edema inhibition came to 48% and the “increase in edematized auricle thickness” value worked out at 0.06±0.01 mm. Also, the “action on oxazolone-induced delayed type hypersensitivity, in words” value in experiment [2] (index test for immunoregulating activity, IV-type allergy) is given as “controlling actions”. In experiment [6], the “% Inhibition against Change in Relative Weight, Spleen” value was 42.6%; the “% Inhibition against Change in Relative Weight, Thymus” value worked out at 130.3%; the “% Inhibition against Reduction” value is 104.6%; the “Edema Inhibition (%) Left Hind Paw (Non-inflamed Paw)” value came to 105%. In experiment [6], the “Edema Inhibition (%) Right Hind Paw” value is reported as 84% and the “Inflammation Score Inhibition (%)” value was determined as 97%.
In the case of `CS(=O)(=O)c1ccc(-n2nc(C(F)(F)F)cc2-c2nc3ccc(F)cc3s2)cc1` [Example 2, 6-Fluoro-2-[1-(4-methylsulfonylphenyl)-3-trifluoromethyl-1H-pyrazol-5-yl]benzothiazole], the IC50 in experiment [3] is over 100 µM. For the same compound, the “% Inhibition of Writhing Response” value in experiment [5] (10 mg/kg oral, Administration Point 1: 10 minutes prior to acetic acid) is recorded as 49%. The “% Inhibition of Writhing Response” value in experiment [5] (10 mg/kg oral, Administration Point 2: 30 minutes prior to acetic acid) is on record as 57%. Moreover, in experiment [4], the “COX-1/COX-2 (ratio of IC50 values)” value is recorded as over 263 and the IC50 came to 0.38 µM. Moreover, in experiment [6], the “% Inhibition against Change in Relative Weight, Spleen” value was 2.5%; the “% Inhibition against Change in Relative Weight, Thymus” value was determined as 56.7%; the “% Inhibition against Reduction” value came to 75.9%; the “Edema Inhibition (%) Left Hind Paw (Non-inflamed Paw)” value is recorded as 91%. Moreover, in experiment [6], the “Edema Inhibition (%) Right Hind Paw” value is recorded as 94% and the “Inflammation Score Inhibition (%)” value worked out at 97%.
Regarding `NS(=O)(=O)c1ccc(-n2nc(C(F)(F)F)cc2-c2nc3ccc(F)cc3s2)cc1` [Example 13, 4-[5-(6-Fluorobenzothiazol-2-yl)-3-trifluoromethyl-1H-pyrazol-1-yl]benzenesulfonamide], the IC50 in experiment [3] was 47 µM. Besides, in experiment [4], the “COX-1/COX-2 (ratio of IC50 values)” value is listed as 142 and the IC50 worked out at 0.33 µM. In experiment [6], the “% Inhibition against Change in Relative Weight, Spleen” value is -10.5%; the “% Inhibition against Change in Relative Weight, Thymus” value is given as 71.3%; the “% Inhibition against Reduction” value is 48.6%; the “Edema Inhibition (%) Left Hind Paw (Non-inflamed Paw)” value came to 76%. Further, in experiment [6], the “Edema Inhibition (%) Right Hind Paw” value was found to be 71% and the “Inflammation Score Inhibition (%)” value is on record as 78%.
